Each structure is given as a SMILES string. pIC50: −log10 of the molar value.

One may read the pIC50 as −log10 of the IC50, conventionally taken in molar units.

The subject of the first experiment is IL3000 T. congolense (drug sensitive) strain. Briefly: In vitro Alamar Blue 72 h drug sensitivity assay for T. congolense. It counts as cell-based, Trypanosoma congolense. To be noted: Trypanosoma congolense, 72 h, bloodstream form, 69 h + 3 h Resazurin, 34° C., read-out: IC50: I Org. Growth T. congolense 3 d. On the procedure: Example 252. In Vitro Alamar Blue 72 h Drug Sensitivity Assay for T. congolense
Compounds were tested in vitro for chemotherapeutic potency against the IL3000 T. congolense (drug sensitive) strain, using the Alamar Blue assay with several modifications. Test compounds were prepared as 10 mg/mL DMSO stocks for each assay run. Compounds were assayed in at least three separate, independent test runs and an 11-point dilution curve was used to determine the IC50 values. Bloodstream form trypanosomes were supported in HMI media containing 20% bovine serum and were incubated with test compounds for 69 h at 34° C. in a humidified atmosphere containing 5% CO2. Thereafter, 10 μL of Resazurin dye (12.5 mg in 100 mL of phosphate buffered saline, Sigma-Aldrich, Buchs, Switzerland) were added for an additional 3 h. Plates were then read using a fluorescent plate reader (Spectramax, Gemini XS, Bucher Biotec, Basel, Switzerland) using an excitation wavelength of 536 nm and an emission wavelength of 588 nm. Data points were averaged to generate sigmoidal dose-response curves and IC50 values were determined using Softmax Pro 5.2 software.
For orientation: Resazurin is reduced to fluorescent resorufin, in cell work by metabolically active cells.
`Cc1c(C(=O)N[C@H](C(=O)OCc2ccc(OCCN3CCCC3)cc2)C(C)C)ccc2c1B(O)OC2` [Example 6-163, 4-(2-(Pyrrolidin-1-yl)ethoxy)benzyl (1-hydroxy-7-methyl-1,3-dihydrobenzo[c][1,2]oxaborole-6-carbonyl)-L-valinate]: the negative logarithm of the IC50 (pIC50) is above 9.30.
The same measure, in the same setting: for `NC(=O)CC[C@H](NC(=O)c1ccc2c(c1)B(O)OC2)C(=O)OCc1ccccc1` [Example 6-011, Benzyl (1-hydroxy-1,3-dihydrobenzo[c][1,2]oxaborole-6-carbonyl)-L-glutaminate] the value was 5.30 to 8.00; for `COC(=O)[C@H](CC1CC1)NC(=O)c1ccc2c(c1)B(O)OC2` [Example 6-184, Methyl (S)-3-cyclopropyl-2-(1-hydroxy-1,3-dihydrobenzo[c][1,2]oxaborole-6-carboxamido)propanoate], 5.30 to 8.00.
Same read-out and setting: for `O=C(CNC(=O)c1ccc2c(c1)B(O)OC2)OCc1ccccc1` [Example 6-004, Benzyl (1-hydroxy-1,3-dihydrobenzo[c][1,2]oxaborole-6-carbonyl)glycinate] the value was 5.30 to 8.00.
`Cc1c(C(=O)N[C@H](C(=O)OC2COCCOC2)C(C)C)ccc2c1B(O)OC2` [Example 6-162, 1,4-dioxepan-6-yl (1-hydroxy-7-methyl-1,3-dihydrobenzo[c][1,2]oxaborole-6-carbonyl)-L-valinate]: the pIC50 was 8.00 to 9.29.
On the same count and under the same terms, with `Cc1cccc(C)c1OC(=O)[C@H](C)NC(=O)c1ccc2c(c1)B(O)OC2` [Example 6-001, 2,6-Dimethylphenyl (1-hydroxy-1,3-dihydrobenzo[c][1,2]oxaborole-6-carbonyl)-L-alaninate] the figure was 5.30 to 8.00; with `CC(C)(NC(=O)c1ccc2c(c1)B(O)OC2)C(=O)OCc1ccccc1` [Example 6-013, Benzyl 2-(1-hydroxy-1,3-dihydrobenzo[c][1,2]oxaborole-6-carboxamido)-2-methylpropanoate], 5.30 to 8.00.
The same measure, in the same setting: for `COC(=O)[C@@H](CCCc1ccccc1)NC(=O)c1ccc2c(c1)B(O)OC2` [Example 6-029, Methyl (R)-2-(1-hydroxy-1,3-dihydrobenzo[c][1,2]oxaborole-6-carboxamido)-5-phenylpentanoate] the value was 5.30 to 8.00.
Still for that read-out and setting: with `C[C@H](NC(=O)c1ccc2c(c1)B(O)OC2)C(=O)OC(C)(C)c1ccccc1` [Example 6-015, 2-Phenylpropan-2-yl (1-hydroxy-1,3-dihydrobenzo[c][1,2]oxaborole-6-carbonyl)-L-alaninate] the figure was 5.30 to 8.00; with `COC(=O)[C@H](CCCc1ccccc1)NC(=O)c1ccc2c(c1)B(O)OC2` [Example 6-028, Methyl (S)-2-(1-hydroxy-1,3-dihydrobenzo[c][1,2]oxaborole-6-carboxamido)-5-phenylpentanoate], 5.30 to 8.00; with `COC(=O)[C@H](Cc1c[nH]c2ccccc12)NC(=O)c1ccc2c(c1)B(O)OC2` [Example 6-183, Methyl (1-hydroxy-1,3-dihydrobenzo[c][1,2]oxaborole-6-carbonyl)-L-tryptophanate], 5.30 to 8.00.
For the compound `COC(=O)[C@@H](NC(=O)c1ccc2c(c1)B(O)OC2)C(C)C` [Example 6-179, Methyl (1-hydroxy-1,3-dihydrobenzo[c][1,2]oxaborole-6-carbonyl)-L-valinate], the negative-log IC50 (pIC50) was 5.30 to 8.00.
As to `C[C@@H](NC(=O)c1ccc2c(c1)B(O)OC2)C(=O)OCc1ccccc1` [Example 6-175, Benzyl (1-hydroxy-1,3-dihydrobenzo[c][1,2]oxaborole-6-carbonyl)-D-alaninate], the pIC50 is 5.30 to 8.00.
For `CC(C)[C@H](NC(=O)c1ccc2c(c1)B(O)OC2(C)C)C(=O)OCc1ccc(F)cc1F` [Example 6-034, 2,4-Difluorobenzyl (1-hydroxy-3,3-dimethyl-1,3-dihydrobenzo[c][1,2]oxaborole-6-carbonyl)-L-valinate], the pIC50 was 5.30 to 8.00.
Regarding `Cc1cccc(C)c1COC(=O)[C@H](C)NC(=O)c1ccc2c(c1)B(O)OC2` [Example 6-014, 2,6-Dimethylbenzyl (1-hydroxy-1,3-dihydrobenzo[c][1,2]oxaborole-6-carbonyl)-L-alaninate], the negative-log IC50 (pIC50) was 5.30 to 8.00.
With `O=C(OCc1ccccc1)[C@@H]1CCCN1C(=O)c1ccc2c(c1)B(O)OC2` [Example 6-012, Benzyl (1-hydroxy-1,3-dihydrobenzo[c][1,2]oxaborole-6-carbonyl)-L-prolinate], the pIC50 is 5.30 to 8.00.
Still for that read-out and setting: with `CC(C)[C@H](NC(=O)c1ccc2c(c1F)B(O)OC2)C(=O)OCc1ccc(F)cc1F` [Example 6-037, 2,4-Difluorobenzyl (7-fluoro-1-hydroxy-1,3-dihydrobenzo[c][1,2]oxaborole-6-carbonyl)-L-valinate] the figure was 5.30 to 8.00.

The same experiment, now with this note: bloodstream form, 69 h + 3 h Resazurin, 34° C., read-out: IC50: I Org. Growth T. congolense 3 d.
Regarding `COC(=O)[C@H](Cc1ccccc1)NC(=O)c1ccc2c(c1)B(O)OC2` [Example 6-181, Methyl (1-hydroxy-1,3-dihydrobenzo[c][1,2]oxaborole-6-carbonyl)-L-phenylalaninate], the negative-log IC50 (pIC50) is 5.30 to 8.00.

The subject of the next experiment is T. cruzi amastigote (Td Tomato-modified) in Vero cells. In words: In vitro IC50 measurement of T. cruzi amastigote killing using Td Tomato-modified T. cruzi. The experiment is classed as cell-based. To be noted: Trypanosoma cruzi, 72 h, fluorescence, read-out: IC50: I Org. amastigote Growth T. cruzi 3 d. On the procedure:
Example 254. In Vitro IC50 Measurement of T. cruzi Amastigote Killing Using Td Tomato-Modified T. cruzi
The T. cruzi parasites used in this assay were genetically modified to express Td Tomato fluorescent protein. Vero cells (African green monkey kidney epithelial cells) were harvested from continuous cultures using trypsin and added to the inner 60 wells of 96-well Greiner Bio One plates (plate catalog #655090) at 200 ul/well of […]. Cells were allowed to adhere for 1 h before infection with T. cruzi. T. cruzi for infection were harvested from previously-infected Vero cells, washed, pelleted and resuspended at 5×10^6/mL. 50 uL of parasites were added to each well containing Vero cells. Compounds were prepared from 5 mM stock concentrations in DMSO to final concentrations in wells ranging from 5 uM to 5 nM. Wells were provided for negative controls, lacking compounds. Plates were placed into a 37° C. incubator for 20 min, then a “Day 0” reading was taken on a Synergy H4 plate reader to record initial fluorescence levels, at 544 (excitation) and 612 nm (emission). 96-well plates were placed in Tupperware containers with wet paper towels and incubated at 37° C. incubator for 72 h. After 72 h plates were reread (Day 3 reading) and data analyzed using Excel and/or Graphpad software. Day 0 fluorescence was subtracted from Day 3 to remove input parasite fluorescence. Growth curves are generated and 50% and 90% inhibitory concentrations are determined by nonlinear regression analysis.
For the compound `Cc1c(C(=O)N[C@H](C(=O)O[C@@H](C)c2ccccc2)C(C)C)ccc2c1B(O)OC2` [Example 6-199, (S)-1-phenylethyl (1-hydroxy-7-methyl-1,3-dihydrobenzo[c][1,2]oxaborole-6-carbonyl)-L-valinate], the negative logarithm of the IC50 (pIC50) is 6.00 to 7.68.
On the same count and under the same terms, with `Cc1c(C(=O)N[C@H](C(=O)O[C@H](C)c2ccccc2)C(C)C)ccc2c1B(O)OC2` [Example 6-198, (R)-1-phenylethyl (1-hydroxy-7-methyl-1,3-dihydrobenzo[c][1,2]oxaborole-6-carbonyl)-L-valinate] the figure was at least 7.70; with `Cc1c(C(=O)N[C@H](C(=O)OCC2CCC(F)(F)CC2)C(C)(C)O)ccc2c1B(O)OC2` [Example 6-248, (4,4-difluorocyclohexyl)methyl (S)-3-hydroxy-2-(1-hydroxy-7-methyl-1,3-dihydrobenzo[c][1,2]oxaborole-6-carboxamido)-3-methylbutanoate], 6.00 to 7.68; with `Cc1c(C(=O)N[C@H](C(=O)OCc2cncc(N(C)C)n2)C(C)C)ccc2c1B(O)OC2` [Example 6-232, (6-(dimethylamino)pyrazin-2-yl)methyl (1-hydroxy-7-methyl-1,3-dihydrobenzo[c][1,2]oxaborole-6-carbonyl)-L-valinate], at least 7.70.
Same read-out and setting: with `Cc1c(C(=O)N[C@H](C(=O)OCC2CCCC2)C(C)C)ccc2c1B(O)OC2` [Example 6-115, Cyclopentylmethyl (1-hydroxy-7-methyl-1,3-dihydrobenzo[c][1,2]oxaborole-6-carbonyl)-L-valinate] the figure was at least 7.70; with `Cc1c(C(=O)N[C@H](C(=O)OCCN2CCN(C)CC2)C(C)C)ccc2c1B(O)OC2` [Example 6-096, 2-(4-Methylpiperazin-1-yl)ethyl (1-hydroxy-7-methyl-1,3-dihydrobenzo[c][1,2]oxaborole-6-carbonyl)-L-valinate], at most 6.00.
Still for that read-out and setting: with `Cc1c(C(=O)N[C@H](C(=O)OCc2ccccn2)C(C)C)ccc2c1B(O)OC2` [Example 6-191, Pyridin-2-ylmethyl (1-hydroxy-7-methyl-1,3-dihydrobenzo[c][1,2]oxaborole-6-carbonyl)-L-valinate] the figure was at least 7.70; with `CC(C)[C@H](NC(=O)c1ccc2c(c1)B(O)OC2)C(=O)OCc1ccc(F)c(F)c1` [Example 6-185, 3,4-difluorobenzyl (1-hydroxy-1,3-dihydrobenzo[c][1,2]oxaborole-6-carbonyl)-L-valinate], 6.00 to 7.68; with `Cc1c(C(=O)N[C@H](C(=O)OC[C@H]2CCOC2)C(C)C)ccc2c1B(O)OC2` [Example 6-235, ((S)-tetrahydrofuran-3-yl)methyl (1-hydroxy-7-methyl-1,3-dihydrobenzo[c][1,2]oxaborole-6-carbonyl)-L-valinate], at least 7.70.
Turning to `Cc1c(C(=O)NC2(C(=O)OCc3ccc(F)cc3)CC2)ccc2c1B(O)OC2` [Example 6-068, 4-Fluorobenzyl 1-(1-hydroxy-7-methyl-1,3-dihydrobenzo[c][1,2]oxaborole-6-carboxamido)cyclopropane-1-carboxylate], the negative-log IC50 (pIC50) is 6.00 to 7.68.
In the case of `Cc1c(C(=O)N[C@H](C(=O)OCC2(C)CCOC2)C(C)C)ccc2c1B(O)OC2` (stereo partly drawn) [Example 6-233, (3-methyltetrahydrofuran-3-yl)methyl (1-hydroxy-7-methyl-1,3-dihydrobenzo[c][1,2]oxaborole-6-carbonyl)-L-valinate], the pIC50 was at least 7.70.
